Data as given in article PMC2937029 (PLoS ONE, 2010).
Like-named read-outs stand apart in the source and are kept apart here.

How the values were obtained:
HprK/P = target: T1, HprK/P (Brucella melitensis, UniProt Q8YE44)
T1 construct: gene BMEI2034

EI^Ntr = target: T2, EI^Ntr (Brucella melitensis, UniProt Q8YJ96); details: labelled compound; 10 µM [32P]PEP, NPr as acceptor, 5 mM MgCl2, pH 7.4, 37°C; covalent phosphoryl transfer
T2 construct: gene BMEI0190
T2 sequence (Q8YJ96 1-756): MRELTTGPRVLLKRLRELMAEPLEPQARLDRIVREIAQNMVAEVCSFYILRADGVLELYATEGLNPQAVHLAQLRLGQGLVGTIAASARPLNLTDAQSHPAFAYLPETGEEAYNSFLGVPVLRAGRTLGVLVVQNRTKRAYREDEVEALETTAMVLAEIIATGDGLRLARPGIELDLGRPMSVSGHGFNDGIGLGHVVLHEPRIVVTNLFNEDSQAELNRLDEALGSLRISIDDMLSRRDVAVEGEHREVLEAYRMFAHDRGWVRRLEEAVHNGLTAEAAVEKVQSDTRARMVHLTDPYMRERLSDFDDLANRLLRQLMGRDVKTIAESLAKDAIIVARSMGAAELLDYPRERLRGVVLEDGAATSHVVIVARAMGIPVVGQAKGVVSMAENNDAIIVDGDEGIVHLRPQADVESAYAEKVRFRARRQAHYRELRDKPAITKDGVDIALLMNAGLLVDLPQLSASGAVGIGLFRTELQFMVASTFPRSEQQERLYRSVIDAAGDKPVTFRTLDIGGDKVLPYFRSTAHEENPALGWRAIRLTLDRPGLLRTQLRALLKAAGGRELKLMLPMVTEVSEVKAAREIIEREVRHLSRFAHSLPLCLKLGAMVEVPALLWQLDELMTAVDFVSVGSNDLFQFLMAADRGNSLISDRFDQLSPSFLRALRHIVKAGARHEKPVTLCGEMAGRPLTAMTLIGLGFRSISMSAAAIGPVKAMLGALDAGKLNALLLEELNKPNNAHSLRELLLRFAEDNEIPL

T1 sequence (Q8YE44 1-159): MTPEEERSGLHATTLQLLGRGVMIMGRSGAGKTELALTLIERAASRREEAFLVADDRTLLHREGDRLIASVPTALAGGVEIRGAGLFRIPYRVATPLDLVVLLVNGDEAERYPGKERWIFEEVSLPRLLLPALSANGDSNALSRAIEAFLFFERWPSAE

## Nc1ncnc2c1ncn2[C@@H]1O[C@H](COP(=O)(O)OP(=O)(O)OP(=O)(O)O)[C@@H](O)[C@H]1O [ATP]
HprK/P; labelled compound, 25 µM [γ-32P]ATP, NPr as acceptor, no FBP or KPi, 5 mM MgCl2, pH 7.4, 37°C
  32P NPr kinase assay, SDS-PAGE, phosphorimaging: HprK/P phosphorylated wild type NPr and NPrH30A in an ATP-dependent way

## C=C(OP(=O)(O)O)C(=O)O [PEP]
EI^Ntr
  32P phosphotransfer to NPr, SDS-PAGE, phosphorimaging: the additional presence of EI allowed the phosphorylation of wild-type NPr

## O=P(O)(O)OP(=O)(O)O [PPi]
HprK/P
  32P NPr kinase assay, SDS-PAGE, phosphorimaging: With both phosphoryl group donors, HprK/P was active as a kinase

## O=P(O)(O)O [Pi]
HprK/P
  32P NPr kinase assay, SDS-PAGE, phosphorimaging: inhibition of both the ATP- and PPi-dependent kinase activities of B. melitensis HprK/P
